From PubChem BioAssay AID270 (DTP/NCI, 2004)
Values joined by “and” are separate entries in the source; they are usually repeats but may differ in a detail not shown here. Identical values can stand only once. Inconclusive results are not listed.

System: BDF1 mice, s.c. Lewis lung carcinoma, T/C %
Test: NCI In Vivo Anticancer Drug Screen. Data for tumor model Lewis Lung Carcinoma (subcutaneous) in B6D2F1 (BDF1) mice
In short: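 Transplanted tumors grown in mice; compound vs vehicle dosing; endpoint survival or tumor size; ratio T/C.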

[1] = endpoint: median survival time, dose: 100.0 mg/kg/injection, schedule: Q01DX009 (ip), vehicle: saline, higher = longer survival

## CC1=C2C(=CC(C)(C)[C@@H]2O)C(=O)[C@](C)(O)C12CC2
endpoint: mean tumor weight, dose: 0.12 mg/kg/injection, schedule: Q01DX011 (ip), vehicle: saline, higher = larger tumour
  T/C: 61 % of control
endpoint: mean tumor weight, dose: 0.18 mg/kg/injection, schedule: Q01DX011 (ip), vehicle: saline, higher = larger tumour
  T/C: 92 % of control
endpoint: mean tumor weight, dose: 0.26 mg/kg/injection, schedule: Q01DX011 (ip), vehicle: saline, higher = larger tumour
  T/C: 73 % of control
endpoint: mean tumor weight, dose: 0.4 mg/kg/injection, schedule: Q01DX011 (ip), vehicle: saline, higher = larger tumour
  T/C: 76 % of control
endpoint: mean tumor weight, dose: 0.6 mg/kg/injection, schedule: Q01DX011 (ip), vehicle: saline, higher = larger tumour
  T/C: 19 % of control

## COc1cc(O)c2c(c1)Cc1cc(C)cc(O)c1C2=O
endpoint: median survival time, dose: 0.1 mg/kg/injection, schedule: Q01DX009 (ip), vehicle: saline with Tween-80, higher = longer survival
  T/C: 117 % of control
endpoint: median survival time, dose: 0.2 mg/kg/injection, schedule: Q01DX009 (ip), vehicle: saline with Tween-80, higher = longer survival
  T/C: 120 % of control and 122 % of control
endpoint: median survival time, dose: 0.4 mg/kg/injection, schedule: Q01DX009 (ip), vehicle: saline with Tween-80, higher = longer survival
  T/C: 108 % of control
endpoint: median survival time, dose: 6.25 mg/kg/injection, schedule: Q01DX009 (ip), vehicle: saline with Tween-80, higher = longer survival
  T/C: 110 % of control

## O=CN1CCOCC1
endpoint: mean tumor weight, dose: 37.0 mg/kg/injection, schedule: Q01DX011 (ip), vehicle: saline, higher = larger tumour
  T/C: 90 % of control
endpoint: mean tumor weight, dose: 55.0 mg/kg/injection, schedule: Q01DX011 (ip), vehicle: saline, higher = larger tumour
  T/C: 152 % of control
endpoint: mean tumor weight, dose: 83.0 mg/kg/injection, schedule: Q01DX011 (ip), vehicle: saline, higher = larger tumour
  T/C: 103 % of control
endpoint: mean tumor weight, dose: 250.0 mg/kg/injection, schedule: Q01DX011 (ip), vehicle: saline, higher = larger tumour
  T/C: 81 % of control
endpoint: mean tumor weight, dose: 500.0 mg/kg/injection, schedule: Q01DX011 (ip), vehicle: saline, higher = larger tumour
  T/C: 100 % of control
endpoint: mean tumor weight, dose: 1000.0 mg/kg/injection, schedule: Q01DX011 (ip), vehicle: saline, higher = larger tumour
  T/C: 92 % of control

## N#Cc1ccc(S(N)(=O)=O)cc1
endpoint: mean tumor weight, dose: 6.2 mg/kg/injection, schedule: Q01DX011 (ip), vehicle: carboxymethylcellulose (CMC), higher = larger tumour
  T/C: 52 % of control
endpoint: mean tumor weight, dose: 12.5 mg/kg/injection, schedule: Q01DX011 (ip), vehicle: carboxymethylcellulose (CMC), higher = larger tumour
  T/C: 66 % of control

## Nc1nc(N)c2nc(CN(CCO)c3ccc(C(=O)NC(CCC(=O)O)C(=O)O)cc3)cnc2n1 (stereo unspecified)
endpoint: median survival time, dose: 0.25 mg/kg/injection, schedule: Q01DX009 (ip), vehicle: Klucel (hydroxypropylcellulose) (HPC), higher = longer survival
  T/C: 96 % of control
endpoint: median survival time, dose: 0.5 mg/kg/injection, schedule: Q01DX009 (ip), vehicle: Klucel (hydroxypropylcellulose) (HPC), higher = longer survival
  T/C: 107 % of control
endpoint: median survival time, dose: 1.0 mg/kg/injection, schedule: Q01DX009 (ip), vehicle: Klucel (hydroxypropylcellulose) (HPC), higher = longer survival
  T/C: 108 % of control
endpoint: median survival time, dose: 2.0 mg/kg/injection, schedule: Q01DX009 (ip), vehicle: Klucel (hydroxypropylcellulose) (HPC), higher = longer survival
  T/C: 89 % of control

## NCCCOc1ccc([N+](=O)[O-])cc1Cl
endpoint: median survival time, dose: 12.5 mg/kg/injection, schedule: Q01DX009 (ip), vehicle: saline, higher = longer survival
  T/C: 87 % of control
endpoint: median survival time, dose: 50.0 mg/kg/injection, schedule: Q01DX009 (ip), vehicle: saline, higher = longer survival
  T/C: 100 % of control and 120 % of control and 121 % of control
[1]
  T/C: 87 % of control and 101 % of control and 112 % of control

## ClCCN(CCCl)CC(Cl)COc1cccc2ccccc12 (stereo unspecified)
endpoint: median survival time, dose: 1.25 mg/kg/injection, schedule: Q01DX009 (ip), vehicle: Klucel (hydroxypropylcellulose) (HPC), higher = longer survival
  T/C: 92 % of control and 103 % of control
endpoint: median survival time, dose: 2.5 mg/kg/injection, schedule: Q01DX009 (ip), vehicle: Klucel (hydroxypropylcellulose) (HPC), higher = longer survival
  T/C: 96 % of control and 103 % of control
endpoint: median survival time, dose: 5.0 mg/kg/injection, schedule: Q01DX009 (ip), vehicle: Klucel (hydroxypropylcellulose) (HPC), higher = longer survival
  T/C: 97 % of control and 101 % of control
endpoint: median survival time, dose: 10.0 mg/kg/injection, schedule: Q01DX009 (ip), vehicle: Klucel (hydroxypropylcellulose) (HPC), higher = longer survival
  T/C: 92 % of control and 110 % of control
endpoint: median survival time, dose: 20.0 mg/kg/injection, schedule: Q01DX009 (ip), vehicle: Klucel (hydroxypropylcellulose) (HPC), higher = longer survival
  T/C: 96 % of control and 106 % of control
endpoint: median survival time, dose: 40.0 mg/kg/injection, schedule: Q01DX009 (ip), vehicle: Klucel (hydroxypropylcellulose) (HPC), higher = longer survival
  T/C: 97 % of control

## OC(CBr)C(O)C(O)C(O)CBr (stereo unspecified)
endpoint: mean tumor weight (est.), dose: 75.0 mg/kg/injection, schedule: Q01DX009 (ip), vehicle: Klucel (hydroxypropylcellulose) (HPC), higher = larger tumour
  T/C: 107 % of control
endpoint: mean tumor weight (est.), dose: 150.0 mg/kg/injection, schedule: Q01DX009 (ip), vehicle: Klucel (hydroxypropylcellulose) (HPC), higher = larger tumour
  T/C: 92 % of control
endpoint: mean tumor weight (est.), dose: 300.0 mg/kg/injection, schedule: Q01DX009 (ip), vehicle: Klucel (hydroxypropylcellulose) (HPC), higher = larger tumour
  T/C: 63 % of control
endpoint: mean tumor weight, dose: 25.0 mg/kg/injection, schedule: Q01DX011 (ip), vehicle: saline, higher = larger tumour
  T/C: 103 % of control
endpoint: mean tumor weight, dose: 50.0 mg/kg/injection, schedule: Q01DX011 (ip), vehicle: saline, higher = larger tumour
  T/C: 82 % of control
endpoint: mean tumor weight, dose: 100.0 mg/kg/injection, schedule: Q01DX011 (ip), vehicle: saline, higher = larger tumour
  T/C: 46 % of control and 51 % of control
endpoint: mean tumor weight, dose: 400.0 mg/kg/injection, schedule: Q01DX011 (ip), vehicle: saline, higher = larger tumour
  T/C: 118 % of control
[1]
  T/C: 107 % of control
endpoint: median survival time, dose: 150.0 mg/kg/injection, schedule: Q01DX009 (ip), vehicle: Klucel (hydroxypropylcellulose) (HPC), higher = longer survival
  T/C: 113 % of control
endpoint: median survival time, dose: 200.0 mg/kg/injection, schedule: Q01DX009 (ip), vehicle: saline, higher = longer survival
  T/C: 102 % of control
endpoint: median survival time, dose: 400.0 mg/kg/injection, schedule: Q01DX009 (ip), vehicle: saline, higher = longer survival
  T/C: 107 % of control
